Earlier results, collected in patent US20220313608A1, “TREATMENT OF BREAST CANCER” (SynCore Biotechnology Co., Ltd., priority 2015, published 2022).

Test system: metastatic breast cancer patients
Conditions: first-line, gemcitabine 1250 mg/m^2 days 1 and 8, paclitaxel 175 mg/m^2 triweekly

In the case of CC(=O)O[C@H]1C(=O)[C@@]2(C)[C@H]([C@H](OC(=O)c3ccccc3)[C@]3(O)C[C@H](OC(=O)[C@H](O)[C@@H](NC(=O)c4ccccc4)c4ccccc4)C(C)=C1C3(C)C)[C@]1(OC(C)=O)CO[C@@H]1C[C@@H]2O [paclitaxel], the “frequency of alteration of hepatic function” value is given as 2%.
